# Data taken from US20240049713A1, “METHOD FOR CONTROLLING HERBICIDE-RESISTANT WEEDS” (SUMITOMO CHEMICAL COMPANY, LIMITED, priority 2020, published 2024).
# Like-named read-outs stand apart in the source and are kept apart here.
# How the values were obtained:
# [1] = system: waterhemp (Amaranthus tuberculatus=Amaranthus rudis=Amaranthus tamariscinus) having Gly210 deficiency in PPO2; format: in vivo; details: rating 0 to 100, sprayed at plant height 20 cm, 200 L/ha, 1% (w/v) Agri-Dex, evaluated after 14 days in greenhouse
# [2] = system: PPO inhibitor-resistant weeds; experiment: plastic pot tests as Examples 1 to 72 and variants (Examples 73 to 3456)
# Description: On the same day, compound X is applied to the surface of soil so that the application rate of the compound X is 10, 20, 40 or 80 g/ha and the spray volume is 200 L/ha. The plastic pot is then placed in a greenhouse, and at 7 days after the application, soybeans are seeded, and further at 14 days after seeding the soybeans, the effect on the weeds and crop injuries on the soybeans are investigated.
# On the same day, compound X is applied to the surface of soil so that the application rate of the compound X is 10, 20, 40 or 80 g/ha and the spray volume is 200 L/ha. The soybeans are then cultivated in a greenhouse, and at 21 days after seeding, the effect on the weeds and crop injuries on the soybeans are investigated.
# The soybeans are then cultivated in a greenhouse, and at 21 days after seeding, compound X is foliar-treated so that the application rate of the compound X is 10, 20, 40 or 80 g/ha and the spray liquid amount is 200 L/ha. Further, the soybeans are cultivated in the greenhouse, and at 14 days after the application of compound X, the effect on the weeds and crop injuries on the soybeans are investigated.
# [3] = as Examples 1 to 216, RoundupPowerMax 32 fluid ounce/acre and XtendiMax 1 pint/acre further added
# [4] = applications as in Examples 1 to 72, compound X replaced, 10 to 80 g/ha
SMILES,herbicidal effect ([1]; 20 g/ha),herbicidal effect ([1]; 40 g/ha),"effect on the weeds [2, 3]","effect on the weeds [2, 4]"
CCOC(=O)COC(=O)C1(Oc2cc(-n3c(=O)cc(C(F)(F)F)n(C)c3=O)c(F)cc2Cl)CC1 [Compound X],99,99,effective control effect,–
"COC(=O)CCNC(=O)C(C)Sc1cc(-n2c(=O)cc(C(F)(F)F)n(C)c2=O)c(F)cc1Cl (stereo not drawn) [Tiafenacil, tiafenacil, reference compound]",50,70,–,–
COC(=O)COC(=O)C1(Oc2cc(-n3c(=O)cc(C(F)(F)F)n(C)c3=O)c(F)cc2Cl)CC1 [Compound Y],–,–,effective control effect,effective control effect
Cn1c(C(F)(F)F)cc(=O)n(-c2cc(OC3(C(=O)OCC(=O)O)CC3)c(Cl)cc2F)c1=O [Compound Z],–,–,effective control effect,effective control effect
